How the values were obtained:
[1] = tested on: E. coli DH5α transformed with recombinant NDM-1 (pQE-2- NDM-1); assay: microbe, parasite or virus in culture; type: cell-based; conditions: for Minimum inhibitory concentration: (pQE-2- NDM-1) DH5α; for MIC: Escherichia coli, read-out: Minimum inhibitory concentration; for MIC of antibiotic when combined with each of the five molecules: bla NDM-1 clone, combined with M1, M17, M21, M61 or M75
Method: (§1) The MIC was determined for E. coli DH5α cells, E. coli DH5α cells with vector and E. coli DH5α cells with bla NDM-1 carrying vectors. […] We next assayed the activities of these drugs in combination with novel screened molecules.
(§2) The MICs of four antibiotics were calculated (Table 4).

[2] = tested on: original DH5α (with null vector) (pQE-2- Original); assay: microbe, parasite or virus in culture; type: cell-based, E. coli; conditions: (pQE-2- Original) DH5α; for MIC: Escherichia coli, read-out: Minimum inhibitory concentration
Method: as §1, §2

| Compound | Minimum inhibitory concentration [1] | MIC [1] | MIC of antibiotic when combined with each of the five molecules [1] | MIC [2] | Minimum inhibitory concentration [2] |
| --- | --- | --- | --- | --- | --- |
| CO[C@@]1(NC(=O)Cc2cccs2)C(=O)N2C(C(=O)O)=C(COC(N)=O)CS[C@@H]21 [Cefoxitin] | 16.0 µg/mL | 16 µg/mL | 8 µg/mL | 2 µg/mL |  |
| CC(C)(O/N=C(\C(=O)N[C@@H]1C(=O)N2C(C(=O)[O-])=C(C[n+]3ccccc3)CS[C@H]12)c1csc(N)n1)C(=O)O [Ceftazidime] | 8.00 µg/mL | 8 µg/mL | 4 µg/mL | 0.25 µg/mL |  |
| CO/N=C(\C(=O)N[C@@H]1C(=O)N2C(C(=O)O)=C(COC(C)=O)CS[C@H]12)c1csc(N)n1 [Cephotaxime] | 512 µg/mL |  |  |  | 0.25 µg/mL |
| C[C@@H](O)[C@H]1C(=O)N2C(C(=O)O)=C(SCCN=CN)C[C@H]12 [Imipenem] | 2.00 µg/mL | 2 µg/mL | 1 µg/mL | 0.5 µg/mL |  |
| C[C@@H](O)[C@H]1C(=O)N2C(C(=O)O)=C(S[C@@H]3CN[C@H](C(=O)N(C)C)C3)[C@H](C)[C@H]12 [Meropenem] | 2.00 µg/mL | 2 µg/mL | 1 µg/mL | 0.5 µg/mL |  |
